The values that follow come from paper PMC4032193 (Journal of Medicinal Chemistry, 2014).

As a reminder, the IC50 is the concentration needed to halve the response being measured. The low end stands for inhibition by little substance, the high end for a need for much substance.

The subject of this data set is HepG2 (hepatocellular carcinoma) cell line. The conditions noted are these: human.

In the case of `CC(=O)O[C@H]1C[C@H]2[C@@H]([C@H](OC(C)=O)C[C@@H]3CC(NCCCNc4ccnc5cc(Cl)ccc45)CC[C@@]32C)[C@@H]2CC[C@H]([C@H](C)CCCNCCCNc3ccnc4cc(Cl)ccc34)[C@@]12C` (mixture of isomers) [Compound 63], the “SI HepG2/D6” value was 43/32/24, the “SI HepG2/TM91C235” value is reported as 43/32/24 and the “SI HepG2/W2” value is 43/32/24.
`CC(=O)O[C@H]1C[C@H]2[C@@H]([C@H](OC(C)=O)C[C@@H]3C[C@H](NC(=O)OC(C)(C)C)CC[C@@]32C)[C@@H]2CC[C@H]([C@H](C)CCCNCCNc3ccnc4cc(Cl)ccc34)[C@@]12C` [Compound 40, 24-N-[(7-Chloroquinoline-4-yl)amino]ethylamino-3α-N′-tert-butylcarbamate-7α,12α-diacetoxy-5β-cholane]: the “SI HepG2/D6” value is reported as 1743/531/464, the “SI HepG2/TM91C235” value is listed as 1743/531/464 and the “SI HepG2/W2” value is listed as 1743/531/464.
Turning to `CC(=O)O[C@H]1C[C@H]2[C@@H]([C@H](OC(C)=O)C[C@@H]3CC(=O)CC[C@@]32C)[C@@H]2CC[C@H]([C@H](C)CCCNCCCCCCNc3ccnc4cc(Cl)ccc34)[C@@]12C` [Compound 25], the “SI HepG2/D6” value is 30/27/25, the “SI HepG2/TM91C235” value is 30/27/25 and the “SI HepG2/W2” value was 30/27/25.
With `CC(=O)O[C@H]1C[C@H]2[C@@H]([C@H](OC(C)=O)C[C@@H]3C[C@H](O)CC[C@@]32C)[C@@H]2CC[C@H]([C@H](C)CCCNCCCCCCNc3ccnc4cc(Cl)ccc34)[C@@]12C` [Compound 19], the “SI HepG2/D6” value is given as 60/56/50, the “SI HepG2/TM91C235” value is reported as 60/56/50 and the “SI HepG2/W2” value is reported as 60/56/50.
Regarding `CC(=O)O[C@H]1C[C@H]2[C@@H]([C@H](OC(C)=O)C[C@@H]3C[C@H](N)CC[C@@]32C)[C@@H]2CC[C@H]([C@H](C)CCCN(CCC[C@@H](C)[C@H]3CC[C@H]4[C@@H]5[C@H](OC(C)=O)C[C@@H]6C[C@H](N)CC[C@]6(C)[C@H]5C[C@H](OC(C)=O)[C@]34C)CCNc3ccnc4cc(Cl)ccc34)[C@@]12C` [Compound 60, N,N-Di(3α-amino-7α,12α-diacetoxy-5β-cholan-24-yl)-N′-(7′-chloroquinoline-4′-yl)-1,3-ethanediamine], the “SI HepG2/D6” value is recorded as 21/19/19, the “SI HepG2/TM91C235” value is 21/19/19 and the “SI HepG2/W2” value is 21/19/19.
Take `CC(=O)O[C@H]1C[C@H]2[C@@H]([C@H](OC(C)=O)C[C@@H]3C[C@H](NS(C)(=O)=O)CC[C@@]32C)[C@@H]2CC[C@H]([C@H](C)CCCN(C)CCNc3ccnc4cc(Cl)ccc34)[C@@]12C` [Compound 42, 24-N-Methyl-N-[(7-chloroquinoline-4-yl)amino]ethylamino-3α-methanesulfonamide-7α,12α-diacetoxy-5β-cholane]: the “SI HepG2/D6” value is reported as 1194/2707/2197, the “SI HepG2/TM91C235” value is reported as 1194/2707/2197 and the “SI HepG2/W2” value is reported as 1194/2707/2197.
With `CC(=O)O[C@H]1C[C@H]2[C@@H]([C@H](OC(C)=O)C[C@@H]3C[C@H](O)CC[C@@]32C)[C@@H]2CC[C@H]([C@H](C)CCCNCCCCNc3ccnc4cc(Cl)ccc34)[C@@]12C` [Compound 18], the “SI HepG2/D6” value was 47/30/28, the “SI HepG2/TM91C235” value is 47/30/28 and the “SI HepG2/W2” value is given as 47/30/28.
As for `CC(=O)O[C@@H]1CC[C@@]2(C)[C@@H](C1)C[C@@H](OC(C)=O)[C@@H]1[C@@H]2C[C@H](OC(C)=O)[C@]2(C)[C@@H]([C@H](C)CCCNCCCNc3ccnc4cc(Cl)ccc34)CC[C@@H]12` [Compound 13], the “SI HepG2/D6” value is given as 104/101/67, the “SI HepG2/TM91C235” value is reported as 104/101/67 and the “SI HepG2/W2” value was 104/101/67.
Consider `CC(=O)O[C@@H]1CC[C@@]2(C)[C@@H](C1)C[C@@H](OC(C)=O)[C@@H]1[C@@H]2C[C@H](OC(C)=O)[C@]2(C)[C@@H]([C@H](C)CCCNCCCCCCNc3ccnc4cc(Cl)ccc34)CC[C@@H]12` [Compound 15], for which the “SI HepG2/D6” value is on record as 47/29/25, the “SI HepG2/TM91C235” value is 47/29/25 and the “SI HepG2/W2” value is given as 47/29/25.
For the compound `CC(=O)O[C@H]1C[C@H]2[C@@H]([C@H](OC(C)=O)C[C@@H]3C[C@H](O)CC[C@@]32C)[C@@H]2CC[C@H]([C@H](C)CCCNCCNc3ccnc4cc(Cl)ccc34)[C@@]12C` [Compound 16, N-(3α-Hydroxy-7α,12α-diacetoxy-5β-cholan-24-yl)-N′-(7′-chloroquinolin-4′-yl)ethane-1,2-diamine], the “SI HepG2/D6” value is 415/938/407, the “SI HepG2/TM91C235” value is on record as 415/938/407 and the “SI HepG2/W2” value is reported as 415/938/407.
The compound `CC(=O)O[C@H]1C[C@H]2[C@@H]([C@H](OC(C)=O)C[C@@H]3C[C@H](N)CC[C@@]32C)[C@@H]2CC[C@H]([C@H](C)CCCNCCNc3ccnc4cc(Cl)ccc34)[C@@]12C` [Compound 52, 24-N-[(7-Chloroquinoline-4-yl)amino]ethylamino-3α-amino-7α,12α-diacetoxy-5β-cholane] registered an IC50 of 3.77 µM. That is a single-digit micromolar value.
Take `CC(=O)O[C@H]1C[C@H]2[C@@H]([C@H](OC(C)=O)C[C@@H]3C[C@H](NC(=O)OC(C)(C)C)CC[C@@]32C)[C@@H]2CC[C@H]([C@H](C)CCCN(C)CCNc3ccnc4cc(Cl)ccc34)[C@@]12C` [Compound 44, 24-N-Methyl-N-[(7-chloroquinoline-4-yl)amino]ethylamino-3α-N′-tert-butylcarbamate-7α,12α-diacetoxy-5β-cholane]: the “SI HepG2/D6” value is 293/264/144, the “SI HepG2/TM91C235” value is given as 293/264/144 and the “SI HepG2/W2” value was 293/264/144.
In the case of `CC(=O)N[C@@H]1CC[C@@]2(C)[C@@H](C1)C[C@@H](OC(C)=O)[C@@H]1[C@@H]2C[C@H](OC(C)=O)[C@]2(C)[C@@H]([C@H](C)CCCNCCCNc3ccnc4cc(Cl)ccc34)CC[C@@H]12` [Compound 37], the “SI HepG2/D6” value is 55/114/51, the “SI HepG2/TM91C235” value is on record as 55/114/51 and the “SI HepG2/W2” value is given as 55/114/51.
As for `CC(=O)O[C@@H]1CC[C@@]2(C)[C@@H](C1)C[C@@H](OC(C)=O)[C@@H]1[C@@H]2C[C@H](OC(C)=O)[C@]2(C)[C@@H]([C@H](C)CCCN(C)CCNc3ccnc4cc(Cl)ccc34)CC[C@@H]12` [Compound 20, N-Methyl-N-(3α,7α,12α-triacetoxy-5β-cholan-24-yl)-N′-(7′-chloroquinolin-4′-yl)ethane-1,2-diamine], the “SI HepG2/D6” value is given as 98/242/79, the “SI HepG2/TM91C235” value is on record as 98/242/79 and the “SI HepG2/W2” value is listed as 98/242/79.
For the compound `CC(=O)O[C@H]1C[C@H]2[C@@H]([C@H](OC(C)=O)C[C@@H]3C[C@H](NS(C)(=O)=O)CC[C@@]32C)[C@@H]2CC[C@H]([C@H](C)CCCNCCCNc3ccnc4cc(Cl)ccc34)[C@@]12C` [Compound 39], the “SI HepG2/D6” value is recorded as 130/119/147, the “SI HepG2/TM91C235” value is on record as 130/119/147 and the “SI HepG2/W2” value is recorded as 130/119/147.
On to `CC(=O)N[C@@H]1CC[C@@]2(C)[C@@H](C1)C[C@@H](OC(C)=O)[C@@H]1[C@@H]2C[C@H](OC(C)=O)[C@]2(C)[C@@H]([C@H](C)CCCNCCNc3ccnc4cc(Cl)ccc34)CC[C@@H]12` [Compound 36, 24-N-[(7-Chloroquinoline-4-yl)amino]ethylamino-3α-acetamido-7α,12α-diacetoxy-5β-cholane], for which the “SI HepG2/D6” value is 126/116/126, the “SI HepG2/TM91C235” value was 126/116/126 and the “SI HepG2/W2” value is on record as 126/116/126.
For the compound `CC(=O)O[C@H]1C[C@H]2[C@@H]([C@H](OC(C)=O)C[C@@H]3CC(=O)CC[C@@]32C)[C@@H]2CC[C@H]([C@H](C)CCCNCCCCNc3ccnc4cc(Cl)ccc34)[C@@]12C` [Compound 24], the “SI HepG2/D6” value is on record as 7/6/6, the “SI HepG2/TM91C235” value is recorded as 7/6/6 and the “SI HepG2/W2” value was 7/6/6.
As to `CC(=O)O[C@H]1C[C@H]2[C@@H]([C@H](OC(C)=O)C[C@@H]3C[C@H](NS(C)(=O)=O)CC[C@@]32C)[C@@H]2CC[C@H]([C@H](C)CCCNCCNc3ccnc4cc(Cl)ccc34)[C@@]12C` [Compound 38], the “SI HepG2/D6” value was 131/301/222, the “SI HepG2/TM91C235” value is 131/301/222 and the “SI HepG2/W2” value is given as 131/301/222.
For the compound `CC(=O)O[C@H]1C[C@H]2[C@@H]([C@H](OC(C)=O)C[C@@H]3C[C@H](N)CC[C@@]32C)[C@@H]2CC[C@H]([C@H](C)CCCNCCCNc3ccnc4cc(Cl)ccc34)[C@@]12C` [Compound 53], the “SI HepG2/D6” value is reported as 54/75/43, the “SI HepG2/TM91C235” value is recorded as 54/75/43 and the “SI HepG2/W2” value is listed as 54/75/43.
On to `CC(=O)O[C@H]1C[C@H]2[C@@H]([C@H](OC(C)=O)C[C@@H]3C[C@H](N)CC[C@@]32C)[C@@H]2CC[C@H]([C@H](C)CCCN(C)CCCNc3ccnc4cc(Cl)ccc34)[C@@]12C` [Compound 55], for which the “SI HepG2/D6” value was 45/44/50, the “SI HepG2/TM91C235” value is listed as 45/44/50 and the “SI HepG2/W2” value is on record as 45/44/50.
`CC(=O)O[C@H]1C[C@H]2[C@@H]([C@H](OC(C)=O)C[C@@H]3CC(=O)CC[C@@]32C)[C@@H]2CC[C@H]([C@H](C)CCCNCCNc3ccnc4cc(Cl)ccc34)[C@@]12C` [Compound 22, N-(3-Oxo-7α,12α-diacetoxy-5β-cholan-24-yl)-N′-(7′-chloroquinolin-4′-yl)ethane-1,2-diamine]: the “SI HepG2/D6” value is given as 299/571/109, the “SI HepG2/TM91C235” value is 299/571/109 and the “SI HepG2/W2” value is reported as 299/571/109.
For `CC(=O)O[C@@H]1CC[C@@]2(C)[C@@H](C1)C[C@@H](OC(C)=O)[C@@H]1[C@@H]2C[C@H](OC(C)=O)[C@]2(C)[C@@H]([C@H](C)CCCNCCCCNc3ccnc4cc(Cl)ccc34)CC[C@@H]12` [Compound 14], the “SI HepG2/D6” value is given as 107/55/47, the “SI HepG2/TM91C235” value is 107/55/47 and the “SI HepG2/W2” value is recorded as 107/55/47.
With `CC(=O)O[C@H]1C[C@H]2[C@@H]([C@H](OC(C)=O)C[C@@H]3C[C@H](N(C)C)CC[C@@]32C)[C@@H]2CC[C@H]([C@H](C)CCCNCCCNc3ccnc4cc(Cl)ccc34)[C@@]12C` [Compound 51], the “SI HepG2/D6” value is on record as 382/137/156, the “SI HepG2/TM91C235” value is 382/137/156 and the “SI HepG2/W2” value is on record as 382/137/156.
